Like-named read-outs stand apart in the source and are kept apart here. Numbered stars: 1 amine (or outer) side, 2 acyl side, 3 side chain; on linkers, the order of the positions; unused ones are H or OH. Square brackets hold non-standard residues; d marks the D form. Side chains are listed from the residue outwards. Peptide text beside a SMILES is read from it. * marks the point of attachment. C18 diacid = O=C(O)CCCCCCCCCCCCCCCCC(=O)*; γGlu = O=C(O)[C@H](CCC(=O)[*:2])N[*:1]; εLys = N[C@@H](CCCCN[*:1])C(=O)[*:2]; AEEA = NCCOCCOCC(=O)O; Aib = CC(C)(N)C(=O)O
Key:
[1] = biological target: T1, human GLP-1 receptor (Homo sapiens, UniProt P43220); test: In vitro potency (CRE luciferase; whole cells); assay type: cell-based; design: EC50/pM (ratio 1% HSA/0% HSA): unit not given here; details: for EC50: BHK cells; for EC50/pM (ratio 1% HSA/0% HSA): ratio of EC50 at 1% HSA to EC50 at 0% HSA
T1 construct: expressed in transfected cells; host or cells: BHK cells, clone FCW467-12A/KZ10-1 (parent line BHKTS13), further transfected with CRE luciferase
T1 sequence (P43220 24-463): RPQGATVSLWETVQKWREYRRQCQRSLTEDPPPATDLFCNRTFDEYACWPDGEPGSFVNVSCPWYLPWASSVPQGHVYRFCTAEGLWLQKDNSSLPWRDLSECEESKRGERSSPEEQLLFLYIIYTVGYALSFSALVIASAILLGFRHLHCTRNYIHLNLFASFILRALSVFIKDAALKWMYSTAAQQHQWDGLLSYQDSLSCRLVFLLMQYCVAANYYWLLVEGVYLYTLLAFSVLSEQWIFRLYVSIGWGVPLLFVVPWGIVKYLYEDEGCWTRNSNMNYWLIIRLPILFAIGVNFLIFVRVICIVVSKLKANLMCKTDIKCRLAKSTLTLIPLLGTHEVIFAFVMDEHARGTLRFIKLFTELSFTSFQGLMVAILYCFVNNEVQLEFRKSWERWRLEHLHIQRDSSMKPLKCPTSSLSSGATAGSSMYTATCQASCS
Procedure, shortened: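 Stably transfected BHK cells carrying human GLP-1R and a CRE–firefly luciferase reporter, 5×10^3 cells/well in assay medium, run with 0% or 1% HSA in assay buffer.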

[2] = biological target: T1, human GLP-1 receptor; test: GLP-1 receptor binding (SPA, displacement of 125I-GLP-1)
Procedure, shortened: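 Membranes from a stably transfected hamster cell line, 5-10 ug protein/sample, with WGA SPA beads and [125I]-GLP-1(7-36)NH2 at 0.06 nM final. Incubated 120 min at 30 °C with shaking, then counted.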

[3] = In vitro potency (CRE luciferase) EC50 (0% HSA), 0% HSA
[4] = In vitro potency (CRE luciferase) EC50 (1% HSA), 1% HSA
[5] = Receptor binding affinity IC50 (high HSA), 2.0% HSA (high albumin)
[6] = Receptor binding affinity IC50 (low HSA), 0.001% HSA (low albumin)
[7] = 0.001% HSA (low albumin), read-out: Receptor binding affinity IC50 (low HSA)

IC50 [2, 7] [nM] | IC50 ([2]; 2.0% HSA (high albumin), read-out: Receptor binding affinity IC50 (high HSA)) [nM] | EC50 ([1]; 0% HSA, read-out: In vitro potency (CRE luciferase) EC50 (0% HSA)) [nM] | IC50 (high HSA) ([2]; Receptor binding affinity IC50 (high HSA), 2.0% HSA (high albumin), heading: Receptor binding affinity IC50) [nM] | Structure (SMILES) | EC50 [1, 3] [nM] | EC50 [1, 4] [nM] | EC50/pM (ratio 1% HSA/0% HSA) [1] | IC50 [2, 5] [nM] | IC50 [2, 6] [nM]
 |  |  |  | CC[C@H](C)[C@H](NC(=O)[C@H](Cc1ccccc1)NC(=O)[C@H](CCC(=O)O)NC(=O)[C@H](CCCCNC(=O)[C@@H](N)CCCCNC(=O)[C@@H](N)CCCCNC(=O)CC[C@H](NC(=O)CC[C@H](NC(=O)CCCCCCCCCCCOc1ccc(C(=O)O)cc1)C(=O)O)C(=O)O)NC(=O)[C@H](C)NC(=O)[C@H](C)NC(=O)[C@H](CCC(N)=O)NC(=O)CNC(=O)[C@H](CCC(=O)O)NC(=O)[C@H](CC(C)C)NC(=O)[C@H](Cc1ccc(O)cc1)NC(=O)[C@H](CO)NC(=O)[C@H](CO)NC(=O)[C@@H](NC(=O)[C@H](CC(=O)O)NC(=O)[C@H](CO)NC(=O)[C@@H](NC(=O)[C@H](Cc1ccccc1)NC(=O)[C@@H](NC(=O)CNC(=O)[C@H](CCC(=O)O)NC(=O)C(C)(C)NC(=O)[C@@H](N)Cc1c[nH]cn1)[C@@H](C)O)[C@@H](C)O)C(C)C)C(=O)N[C@@H](C)C(=O)N[C@@H](Cc1c[nH]c2ccccc12)C(=O)N[C@@H](CC(C)C)C(=O)N[C@H](C(=O)N[C@@H](CCCNC(=N)N)C(=O)NCC(=O)N[C@@H](CCCNC(=N)N)C(=O)N[C@@H](CCCCNC(=O)[C@@H](N)CCCCNC(=O)[C@@H](N)CCCCNC(=O)CC[C@H](NC(=O)CC[C@H](NC(=O)CCCCCCCCCCCOc1ccc(C(=O)O)cc1)C(=O)O)C(=O)O)C(=O)O)C(C)C [Example 16, N^ε26-[(2S)-2-amino-6-[[(2S)-2-amino-6-[[(4S)-4-carboxy-4-[[(4S)-4-carboxy-4-[12-(4-carboxyphenoxy)dodecanoylamino]butanoyl]amino]butanoyl]amino]hexanoyl]amino]hexanoyl], N^ε37-[(2S)-2-amino-6-[[(2S)-2-amino-6-[[(4S)-4-carboxy-4-[[(4S)-4-carboxy-4-[12-(4-carboxyphenoxy)dodecanoylamino]butanoyl]amino]butanoyl]amino]hexanoyl]amino]hexanoyl]-[Aib^8,Arg^34,Lys^37]-GLP-1-(7-37)-peptide] | 0.0033 | 0.047 | 14 | 199 | 0.24
 |  |  |  | CC[C@H](C)[C@H](NC(=O)[C@H](Cc1ccccc1)NC(=O)[C@H](CCC(=O)O)NC(=O)[C@H](CCCCNC(=O)[C@@H](N)CCCCNC(=O)[C@@H](N)CCCCNC(=O)CC[C@H](NC(=O)CCCCCCCCCCCOc1ccc(C(=O)O)cc1)C(=O)O)NC(=O)[C@H](C)NC(=O)[C@H](C)NC(=O)[C@H](CCC(N)=O)NC(=O)CNC(=O)[C@H](CCC(=O)O)NC(=O)[C@H](CC(C)C)NC(=O)[C@H](Cc1ccc(O)cc1)NC(=O)[C@H](CO)NC(=O)[C@H](CO)NC(=O)[C@@H](NC(=O)[C@H](CC(=O)O)NC(=O)[C@H](CO)NC(=O)[C@@H](NC(=O)[C@H](Cc1ccccc1)NC(=O)[C@@H](NC(=O)CNC(=O)[C@H](CCC(=O)O)NC(=O)C(C)(C)NC(=O)[C@@H](N)Cc1c[nH]cn1)[C@@H](C)O)[C@@H](C)O)C(C)C)C(=O)N[C@@H](C)C(=O)N[C@@H](Cc1c[nH]c2ccccc12)C(=O)N[C@@H](CC(C)C)C(=O)N[C@H](C(=O)N[C@@H](CCCNC(=N)N)C(=O)NCC(=O)N[C@@H](CCCNC(=N)N)C(=O)N[C@@H](CCCCNC(=O)[C@@H](N)CCCCNC(=O)[C@@H](N)CCCCNC(=O)CC[C@H](NC(=O)CCCCCCCCCCCOc1ccc(C(=O)O)cc1)C(=O)O)C(=O)O)C(C)C [Example 7, N^ε26-[(2S)-2-amino-6-[[(2S)-2-amino-6-[[(4S)-4-carboxy-4-[12-(4-carboxyphenoxy)dodecanoylamino]butanoyl]amino]hexanoyl]amino]hexanoyl], N^ε37-[(2S)-2-amino-6-[[(2S)-2-amino-6-[[(4S)-4-carboxy-4-[12-(4-carboxyphenoxy)dodecanoylamino]butanoyl]amino]hexanoyl]amino]hexanoyl]-[Aib^8,Arg^34,Lys^37]-GLP-1-(7-37)-peptide] |  | 0.096 |  | 106 | 0.13
 |  |  |  | CC[C@H](C)[C@H](NC(=O)[C@H](Cc1ccccc1)NC(=O)[C@H](CCC(=O)O)NC(=O)[C@H](CCCCNC(=O)[C@@H](N)CCCCNC(=O)COCCOCCNC(=O)COCCOCCNC(=O)CC[C@H](NC(=O)CCCCCCCCCOc1ccc(C(=O)O)cc1)C(=O)O)NC(=O)[C@H](C)NC(=O)[C@H](C)NC(=O)[C@H](CCC(N)=O)NC(=O)CNC(=O)[C@H](CCC(=O)O)NC(=O)[C@H](CC(C)C)NC(=O)[C@H](Cc1ccc(O)cc1)NC(=O)[C@H](CO)NC(=O)[C@H](CO)NC(=O)[C@@H](NC(=O)[C@H](CC(=O)O)NC(=O)[C@H](CO)NC(=O)[C@@H](NC(=O)[C@H](Cc1ccccc1)NC(=O)[C@@H](NC(=O)CNC(=O)[C@H](CCC(=O)O)NC(=O)C(C)(C)NC(=O)[C@@H](N)Cc1c[nH]cn1)[C@@H](C)O)[C@@H](C)O)C(C)C)C(=O)N[C@@H](C)C(=O)N[C@@H](Cc1c[nH]c2ccccc12)C(=O)N[C@@H](CC(C)C)C(=O)N[C@H](C(=O)N[C@@H](CCCNC(=N)N)C(=O)NCC(=O)N[C@@H](CCCNC(=N)N)C(=O)N[C@@H](CCCCNC(=O)[C@@H](N)CCCCNC(=O)COCCOCCNC(=O)COCCOCCNC(=O)CC[C@H](NC(=O)CCCCCCCCCOc1ccc(C(=O)O)cc1)C(=O)O)C(=O)O)C(C)C [Example 5] | 0.0054 | 0.033 |  | 64 | 1.03
0.24 | 29 |  |  | CC[C@H](C)[C@H](NC(=O)[C@H](Cc1ccccc1)NC(=O)[C@H](CCC(=O)O)NC(=O)[C@H](CCCCNC(=O)[C@@H](N)CCCCNC(=O)[C@@H](N)CCCCNC(=O)CC[C@H](NC(=O)CCCCCCCCCCCCC(=O)O)C(=O)O)NC(=O)[C@H](C)NC(=O)[C@H](C)NC(=O)[C@H](CCC(N)=O)NC(=O)CNC(=O)[C@H](CCC(=O)O)NC(=O)[C@H](CC(C)C)NC(=O)[C@H](Cc1ccc(O)cc1)NC(=O)[C@H](CO)NC(=O)[C@H](CO)NC(=O)[C@@H](NC(=O)[C@H](CC(=O)O)NC(=O)[C@H](CO)NC(=O)[C@@H](NC(=O)[C@H](Cc1ccccc1)NC(=O)[C@@H](NC(=O)CNC(=O)[C@H](CCC(=O)O)NC(=O)C(C)(C)NC(=O)[C@@H](N)Cc1c[nH]cn1)[C@@H](C)O)[C@@H](C)O)C(C)C)C(=O)N[C@@H](C)C(=O)N[C@@H](Cc1c[nH]c2ccccc12)C(=O)N[C@@H](CC(C)C)C(=O)N[C@H](C(=O)N[C@@H](CCCNC(=N)N)C(=O)NCC(=O)N[C@@H](CCCNC(=N)N)C(=O)N[C@@H](CCCCNC(=O)[C@@H](N)CCCCNC(=O)[C@@H](N)CCCCNC(=O)CC[C@H](NC(=O)CCCCCCCCCCCCC(=O)O)C(=O)O)C(=O)O)C(C)C [Example 2, N^ε26-[(2S)-2-amino-6-[[(2S)-2-amino-6-[[(4S)-4-carboxy-4-(13-carboxytridecanoylamino)butanoyl]amino]hexanoyl]amino]hexanoyl], N^ε37-[(2S)-2-amino-6-[[(2S)-2-amino-6-[[(4S)-4-carboxy-4-(13-carboxytridecanoylamino)butanoyl]amino]hexanoyl]amino]hexanoyl]-[Aib^8,Arg^34,Lys^37]-GLP-1-(7-37)-peptide] |  | 0.059 |  |  | 
1.67 |  | 0.017 | ≥ 1000 | CC[C@H](C)[C@H](NC(=O)[C@H](Cc1ccccc1)NC(=O)[C@H](CCC(=O)O)NC(=O)[C@H](CCCCNC(=O)[C@@H](N)CCCCNC(=O)COCCOCCNC(=O)COCCOCCNC(=O)CC[C@H](NC(=O)CCCCCCCCCCCCCCCCC(=O)O)C(=O)O)NC(=O)[C@H](C)NC(=O)[C@H](C)NC(=O)[C@H](CCC(N)=O)NC(=O)[C@H](CCC(=O)O)NC(=O)[C@H](CCC(=O)O)NC(=O)[C@H](CC(C)C)NC(=O)[C@H](Cc1ccc(O)cc1)NC(=O)[C@H](CO)NC(=O)[C@H](CO)NC(=O)[C@@H](NC(=O)[C@H](CC(=O)O)NC(=O)[C@H](CO)NC(=O)[C@@H](NC(=O)[C@H](Cc1ccccc1)NC(=O)[C@@H](NC(=O)CNC(=O)[C@H](CCC(=O)O)NC(=O)C(C)(C)NC(=O)[C@@H](N)Cc1c[nH]cn1)[C@@H](C)O)[C@@H](C)O)C(C)C)C(=O)N[C@@H](C)C(=O)N[C@@H](Cc1c[nH]c2ccccc12)C(=O)N[C@@H](CC(C)C)C(=O)N[C@H](C(=O)N[C@@H](CCC(N)=O)C(=O)NCC(=O)N[C@@H](CCCNC(=N)N)C(=O)N[C@@H](CCCCNC(=O)[C@@H](N)CCCCNC(=O)COCCOCCNC(=O)COCCOCCNC(=O)CC[C@H](NC(=O)CCCCCCCCCCCCCCCCC(=O)O)C(=O)O)C(=O)O)C(C)C [Example 28, N^ε26-[(2S)-2-amino-6-[[2-[2-[2-[[2-[2-[2-[[(4S)-4-carboxy-4-(17-carboxyheptadecanoylamino)butanoyl]amino]ethoxy]ethoxy]acetyl]amino]ethoxy]ethoxy]acetyl]amino]hexanoyl], N^ε37-[(2S)-2-amino-6-[[2-[2-[2-[[2-[2-[2-[[(4S)-4-carboxy-4-(17-carboxyheptadecanoylamino)butanoyl]amino]ethoxy]ethoxy]acetyl]amino]ethoxy]ethoxy]acetyl]amino]hexanoyl]-[Aib^8,Glu^22,Gln^34, Lys^37]-GLP-1-(7-37)-peptide] (H-H[Aib]EGTFTSDVSSYLEEQAAK([εLys-AEEA-AEEA-γGlu-C18 diacid])EFIAWLVQGRK([εLys-AEEA-AEEA-γGlu-C18 diacid])-OH; N-terminus and C-terminus assumed) |  | 5.73 | 329 |  | 

From patent publication US10604554B2, “Double-acylated GLP-1 derivatives” (Novo Nordisk A/S, priority 2012, dated 2020)
